In article PMC12630686, “A degron-mimicking molecular glue drives CRBN homo-dimerization and degradation” (Nature Communications, 2025):

Key:
[1] = target: T1, Cereblon (CRBN) (Homo sapiens, UniProt Q96SW2); experiment: TR-FRET displacement of Cy5-thalidomide from CRBN-DDB1; type: binding; parameters: 6xHis-CRBN-DDB1 complex; with DDB1
Target sequence in this assay (Q96SW2 40-442): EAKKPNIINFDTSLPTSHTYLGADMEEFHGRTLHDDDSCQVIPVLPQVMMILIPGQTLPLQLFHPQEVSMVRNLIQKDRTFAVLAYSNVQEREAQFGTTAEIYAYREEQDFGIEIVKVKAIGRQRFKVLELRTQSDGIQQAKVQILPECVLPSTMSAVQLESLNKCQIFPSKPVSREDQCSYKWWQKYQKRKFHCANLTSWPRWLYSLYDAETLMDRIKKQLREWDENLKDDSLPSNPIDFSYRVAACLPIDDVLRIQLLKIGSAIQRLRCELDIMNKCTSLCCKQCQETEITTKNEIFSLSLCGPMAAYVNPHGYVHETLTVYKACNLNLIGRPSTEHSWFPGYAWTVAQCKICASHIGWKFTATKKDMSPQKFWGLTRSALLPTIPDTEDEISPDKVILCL
Target sequence in this assay (Q16531 whole entry partner): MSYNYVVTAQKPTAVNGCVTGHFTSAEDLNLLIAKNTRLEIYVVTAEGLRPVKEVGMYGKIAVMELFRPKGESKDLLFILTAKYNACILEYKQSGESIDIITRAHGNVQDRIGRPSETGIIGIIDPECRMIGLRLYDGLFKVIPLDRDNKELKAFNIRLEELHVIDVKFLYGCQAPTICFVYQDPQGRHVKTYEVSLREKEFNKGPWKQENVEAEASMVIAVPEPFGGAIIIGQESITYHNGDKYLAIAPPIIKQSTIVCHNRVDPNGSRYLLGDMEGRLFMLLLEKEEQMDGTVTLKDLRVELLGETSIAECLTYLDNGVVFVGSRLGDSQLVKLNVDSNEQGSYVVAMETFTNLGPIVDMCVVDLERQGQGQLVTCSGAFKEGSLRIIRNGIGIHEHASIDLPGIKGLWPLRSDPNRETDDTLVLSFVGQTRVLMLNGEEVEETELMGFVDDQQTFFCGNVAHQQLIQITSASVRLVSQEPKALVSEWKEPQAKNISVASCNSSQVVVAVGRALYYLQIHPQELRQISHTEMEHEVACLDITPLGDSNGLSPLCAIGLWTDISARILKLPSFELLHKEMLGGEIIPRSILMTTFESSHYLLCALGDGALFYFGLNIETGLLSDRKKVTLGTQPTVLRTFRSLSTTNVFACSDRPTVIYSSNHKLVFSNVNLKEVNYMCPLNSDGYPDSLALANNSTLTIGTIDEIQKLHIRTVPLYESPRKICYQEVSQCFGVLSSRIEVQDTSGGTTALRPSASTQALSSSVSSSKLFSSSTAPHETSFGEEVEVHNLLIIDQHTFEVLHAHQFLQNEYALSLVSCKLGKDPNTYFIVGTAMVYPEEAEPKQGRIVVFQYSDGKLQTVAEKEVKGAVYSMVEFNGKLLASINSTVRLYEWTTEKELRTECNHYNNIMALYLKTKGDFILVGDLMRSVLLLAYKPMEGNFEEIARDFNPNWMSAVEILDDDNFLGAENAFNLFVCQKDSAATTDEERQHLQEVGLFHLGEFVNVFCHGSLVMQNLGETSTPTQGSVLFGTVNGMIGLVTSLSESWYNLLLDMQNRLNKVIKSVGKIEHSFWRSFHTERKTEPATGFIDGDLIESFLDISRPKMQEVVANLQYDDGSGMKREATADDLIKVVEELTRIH

[2] = target: T1, Cereblon (CRBN); experiment: cryo-EM structure ([…] Å and […] Å); TR-FRET thalidomide displacement (IC50); FIDA and SEC-MALS; type: binding; parameters: 6xHis-CRBN-DDB1 complex (per checker note), TR-FRET thalidomide displacement; not the cryo-EM CRBN 41-442/DDB1ΔBPB homodimer
Target sequence in this assay (Q96SW2 whole entry): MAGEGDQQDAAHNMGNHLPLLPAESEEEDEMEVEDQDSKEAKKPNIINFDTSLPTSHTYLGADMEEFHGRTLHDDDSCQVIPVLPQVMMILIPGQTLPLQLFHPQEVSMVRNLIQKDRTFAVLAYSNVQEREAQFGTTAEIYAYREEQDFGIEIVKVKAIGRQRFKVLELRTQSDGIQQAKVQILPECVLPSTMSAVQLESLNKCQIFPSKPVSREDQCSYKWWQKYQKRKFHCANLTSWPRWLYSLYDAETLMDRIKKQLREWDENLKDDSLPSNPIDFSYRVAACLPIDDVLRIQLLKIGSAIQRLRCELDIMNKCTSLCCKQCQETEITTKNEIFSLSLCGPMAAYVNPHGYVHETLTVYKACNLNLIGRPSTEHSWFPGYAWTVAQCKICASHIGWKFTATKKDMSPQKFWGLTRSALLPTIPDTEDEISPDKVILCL
Target sequence in this assay (Q16531 2-1140 partner): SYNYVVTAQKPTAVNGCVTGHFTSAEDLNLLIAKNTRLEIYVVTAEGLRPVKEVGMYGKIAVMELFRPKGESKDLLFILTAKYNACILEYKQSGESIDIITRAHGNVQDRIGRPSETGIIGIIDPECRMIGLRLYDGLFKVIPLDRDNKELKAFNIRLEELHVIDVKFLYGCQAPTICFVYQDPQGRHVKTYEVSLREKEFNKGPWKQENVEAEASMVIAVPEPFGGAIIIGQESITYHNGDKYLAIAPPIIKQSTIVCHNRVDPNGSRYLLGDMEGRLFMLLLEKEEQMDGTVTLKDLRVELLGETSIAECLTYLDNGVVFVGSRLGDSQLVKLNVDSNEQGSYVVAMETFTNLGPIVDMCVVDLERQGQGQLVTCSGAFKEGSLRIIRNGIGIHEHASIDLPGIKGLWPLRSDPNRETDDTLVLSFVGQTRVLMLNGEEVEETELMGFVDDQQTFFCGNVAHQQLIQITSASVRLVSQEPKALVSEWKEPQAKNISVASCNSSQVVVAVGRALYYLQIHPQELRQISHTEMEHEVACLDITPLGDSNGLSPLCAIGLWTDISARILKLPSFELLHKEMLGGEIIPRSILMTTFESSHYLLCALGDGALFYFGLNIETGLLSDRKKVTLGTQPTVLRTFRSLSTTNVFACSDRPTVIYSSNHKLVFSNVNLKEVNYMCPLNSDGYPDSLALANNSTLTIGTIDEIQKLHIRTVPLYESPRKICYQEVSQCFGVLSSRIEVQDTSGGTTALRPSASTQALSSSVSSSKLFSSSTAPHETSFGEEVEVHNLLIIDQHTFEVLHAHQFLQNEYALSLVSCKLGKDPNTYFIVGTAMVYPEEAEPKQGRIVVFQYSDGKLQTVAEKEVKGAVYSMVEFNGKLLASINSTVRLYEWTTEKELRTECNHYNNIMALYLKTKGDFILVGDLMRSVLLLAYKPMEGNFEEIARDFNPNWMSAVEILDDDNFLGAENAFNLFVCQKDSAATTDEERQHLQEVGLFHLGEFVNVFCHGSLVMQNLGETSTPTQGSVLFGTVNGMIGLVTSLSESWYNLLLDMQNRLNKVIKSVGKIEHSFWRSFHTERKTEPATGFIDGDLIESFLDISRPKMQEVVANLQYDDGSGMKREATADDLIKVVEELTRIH

O=C1CCC(N2Cc3ccc(N4CCC5(CCN(Cc6ccccc6)CC5)C4)cc3C2=O)C(=O)N1 (centres unmarked) [MRT-30568]
IC50 [1]: 0.06 µM

O=C1CCC(N2Cc3ccc(N4CCC5(CCN(C(=O)c6ccccc6)CC5)C4)cc3C2=O)C(=O)N1 (centres unmarked) [MRT-31619]
IC50 [2]: 0.014 µM
